Results from US12441708B2, “Cereblon ligands and bifunctional compounds comprising the same” (Arvinas Operations, Inc., priority 2017, dated 2025).

Columns and labels:
Format in all cases: cell-based
[1] = biological target: T1, estrogen receptor-alpha (ERα) (Homo sapiens (Human), UniProt P03372); test: Estrogen receptor-alpha (ERα) degradation assay in T47D cells; conditions: % degraded, 5 day incubation, read-out: ER Degradation Dmax
estrogen receptor = test: ERE luciferase assay in T47D-KBluc cells; conditions: Homo sapiens, 24 hours, read-out: ER Target Engagement IC50
Experimental: 1. ERE Luciferase Assay for Compounds in Table 2
T47D-1(Bluc cells (ATCC® ECRL 2 65, T47D human breast cancer cells stably transfected with estrogen responsive element/promoter/luciferase reporter gene) were seeded into 96-well white opaque plates in IR: PM growth medium supplemented with 10% fetal bovine serum (FBS) and allowed to adhere overnight in a 37° C. humidified incubator. The following day, cells were treated with PROTACs in a 12-point concentration curve (top final concentration of 300 nM with subsequent concentrations being 3-fold less with […] being the lowest concentration in the assay). Each PROTAC was tested independently in two experiments on 96-well plates. After 24 hours, media was removed and lysis buffer was added to the wells. Following lysis, Bright-Glo™ Luciferase Assay Substrate (Promega, Madison WI) was added and the luciferase activity was measured using a Cytation 3 plate reader (BioTek™, Winooski, VT). Each compound was assayed in duplicate and the activity was calculated as […] using GraphPad Prism software (San Diego, CA).

c-Myc = test: BRD4 human c-Myc ELISA assay in 22RV-1 cells; conditions: 22Rv1, 18 hours
Experimental: 6. BRD4 Human c-Myc ELISA Assay Protocol
22RV-1 cells were seeded at 30,000 cells/well at a volume of 75 μL/well in RPMI with 10% FBS media in 96-well plates and grown overnight at 37° C. Cells were dosed with compounds at 4× concentration diluted in 0.4% DMSO; compounds were serially diluted 1:3 for 8-point dose curve. Twenty-five (25) ul of the compounds was added to cells for a final concentration starting at 300 nM-0.3 nM or 1 uM-1 nM in 0.1% DMSO and incubated for 18 hours. Media was aspirated, cells were washed 1× with PBS and aspirated. Cells were lysed in 50 ul RIPA buffer (50 mM Tris pH8, 150 mM NaCl, 1% Tx-100, 0.1% SDS, 0.5% sodium deoxycholate) supplemented with protease and phosphatase inhibitors. Plates were incubated on ice for 15 minutes then centrifuged at 4° C. for 10 minutes at 4000 rpm. Fifty (50) ul of cleared lysate from a 96-well assay plate was added into 96-well c-myc ELISA plate (Novex, Life Technologies Catalog #KH02041). c-myc standard was reconstituted with standard diluent buffer; standard curve range of 333 pg/ml-0 pg/ml was prepared, diluted 1:2 for 8-point dose curve. The rest of the assay was performed following the protocol from the c-myc ELISA kit. Data was analyzed and plotted using GraphPad Prism software.

[2] = biological target: T1, estrogen receptor-alpha (ERα); test: Estrogen receptor-alpha (ERα) degradation assay in MCF7 cells (In-Cell Western / western blot); conditions: % degraded, read-out: ER Degradation Dmax
Experimental: 2. Estrogen Receptor-Alpha (ERα) Degradation Assay in MCF-7 Cells Using Western Blot Method for Table 5
The exemplary novel ERα degraders were assessed for their activity in degrading ERα in MCF-7 cells via western blot. The assay was carried out in the presence of 10% FBS or high percentage of human or mouse serum. Protocols of the western blot assay are described below.
MCF7 cells were grown in DMEM/F12 with 10% FBS and seeded at 24,000 cells per well in 100 μl into 96-well clear tissue culture plates. The following day, the cells were treated with PROTACs in a […] concentration curve with 100 nM being the top concentration and serial dilutions to make the other concentrations (30 nM, 10 nM. 3 nM, 1 nM, and 0.3 nM). At all concentrations, 0.01% DMSO is the final concentration in the well. The following day, the plates are aspirated, washed with 50 μl of cold PBS. The cells are lysed with 50 μl/well 4° C. Cell Lysis Buffer (Catalog #9803; Cell Signaling Technology, Danvers, MA) (20 mM Tris-HCL (pH 7.5), 150 mM NaCl, 1 mM Na2EDTA, 1 mM EGTA, 1% Triton, 2.5 mM sodium pyrophosphate, 1 mM B-glycerophosphate, 1 mM sodium vanadate, 1 μg/ml leupeptin). Lysates were clarified at 16,000× g for 10 minutes, and 2 μg of protein was subjected to SDS-PAGE analysis and followed by immunoblotting according to standard protocols. The antibodies used were ERα (Cell Signaling, Technologies Catalog #8644), and Tubulin (Sigma Catalog #T9026; St. Louis, MO). Detection reagents were Clarity Western ECL substrate (Bio-Rad Catalog 4170-5060; Hercules, CA).
Alternatively, MCF7 cells were grown in DMEM/F12 with 10% FBS and seeded at 24,000 cells per well in 500 μl in 24-well clear tissue culture plates. The following day, the cells were treated with PROTACs in a 5-point concentration curve (100 nM, 33 nM, 11 nM, 3.7 nM, and 1.2 nM) in the presence of 0.01% DMSO. After 72 hours, the wells are aspirated and washed with 500 μl of PBS. The cells are lysed with 100 μl/well 4° C. Cell Lysis Buffer (Catalog #9803; Cell Signaling Technology, Danvers, MA) (20 mM Tris-HCL (pH 7.5), 150 mM NaCl, 1 mM Na2EDTA, 1 mM EGTA, 1% Triton, 2.5 mM sodium pyrophosphate, 1 mM B-glycerophosphate, 1 mM sodium vanadate, 1 ug/ml leupeptin). Lysates were clarified at 16,000× g for 10 minutes, and 2 μg of protein was subjected to SDS-PAGE analysis and followed by immunoblotting according to standard protocols. The antibodies used were ERα (Cell Signaling Technologies Catalog #8644), and Tubulin (Sigma Catalog #T9026; St. Louis, MO). Detection reagents were Clarity Western ECL substrate (Bio-Rad Catalog 4170-5060; Hercules, CA).
3. Estrogen receptor-alpha (ERα) degradation assay using In-Cell Western™ Assay for Table 5
Degradation of ERα by claimed compounds were determined in MCF7 cells using an In-Cell Western™ assay. Briefly, MCF7 cells were plated in 96-well plates (2000 cells per well in 100 μl media) and incubated at 37° C. under an atmosphere of 5% CO2 in a humidified incubator overnight. One-hundred (100) μl of media containing test compound (at 2× concentration) was added to the appropriate wells to provide 11 serially decreasing concentrations (top final concentration, 1 μM then 3-fold less for the next 10 concentrations); a vehicle control (DMSO) was also added for each compound. For each experiment, all compounds were assayed in duplicate plates. Cells were then incubated for 3 or 5 days in the above-mentioned environment. The assay was terminated by removal of media, a single wash with ice-cold PBS and the addition of […] paraformaldehyde (PFA: 4% in PBS). After 15 minutes in PFA at room temperature, the cells were permeabilized in Tris-phosphate-buffered saline with Tween (0.1%) (TBST) supplemented with Triton X-100 (0.5%) for 15 minutes. Cells were then blocked in BSA (TBST with BSA, 3%) for one hour. […] The cells were incubated overnight at 4° C. […]

T1 sequence (P03372 whole entry): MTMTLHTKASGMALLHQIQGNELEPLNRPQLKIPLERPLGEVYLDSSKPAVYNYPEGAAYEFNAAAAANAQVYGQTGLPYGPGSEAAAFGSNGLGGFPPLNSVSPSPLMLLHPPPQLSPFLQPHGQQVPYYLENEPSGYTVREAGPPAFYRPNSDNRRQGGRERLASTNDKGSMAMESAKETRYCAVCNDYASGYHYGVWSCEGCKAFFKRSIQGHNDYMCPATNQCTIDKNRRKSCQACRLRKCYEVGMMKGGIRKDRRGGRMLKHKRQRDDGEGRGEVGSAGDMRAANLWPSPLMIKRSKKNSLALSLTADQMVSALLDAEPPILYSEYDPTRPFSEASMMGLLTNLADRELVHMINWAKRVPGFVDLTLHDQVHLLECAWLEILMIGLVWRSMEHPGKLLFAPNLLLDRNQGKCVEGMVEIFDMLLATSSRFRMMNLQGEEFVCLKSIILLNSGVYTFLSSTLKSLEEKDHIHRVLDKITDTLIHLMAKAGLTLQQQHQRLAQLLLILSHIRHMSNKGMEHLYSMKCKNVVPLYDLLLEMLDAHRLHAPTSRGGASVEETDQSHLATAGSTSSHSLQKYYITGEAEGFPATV

SMILES | Dmax [1] | IC50 (estrogen receptor) | IC50 (c-Myc) | Dmax ([2]; 5 day incubation) | Dmax ([2]; 3 day incubation)
CCN(C(=O)c1ccc(N2CCN(CCCCCOc3ccc([C@@H]4c5ccc(O)cc5CC[C@@H]4c4ccccc4)cc3)CC2)cc1OC)C1CCC(=O)NC1=O (mixture of isomers) [PROTAC-92, rac-N-(2,6-dioxopiperidin-3-yl)-N-ethyl-4-(4-(5-(4-((1R,2S)-6-hydroxy-2-phenyl-1,2,3,4-tetrahydronaphthalen-1-yl)phenoxy)pentyl)piperazin-1-yl)-2-methoxybenzamide] | ≤ 50% |  |  |  | 
O=C1CCC(N2CC(Oc3cccc(C4CCN(CCCCOc5ccc([C@H]6c7ccc(O)cc7CC[C@H]6c6ccccc6)cc5)CC4)c3)=CC2=O)C(=O)N1 (mixture of isomers) [PROTAC-109, rac-3-(4-(3-(1-(4-(4-((1R,2S)-6-hydroxy-2-phenyl-1,2,3,4-tetrahydronaphthalen-1-yl)phenoxy)butyl)piperidin-4-yl)phenoxy)-2-oxo-2,5-dihydro-1H-pyrrol-1-yl)piperidine-2,6-dione] | ≤ 50% | ≥ 0.1 µM |  |  | 
Cc1sc2c(c1C)C(c1ccc(Cl)cc1)=NC(CC(=O)NCCCOCCCOc1ccc3ncc(-n4ccc(=O)[nH]c4=O)cc3c1)c1nnc(C)n1-2 (centres unmarked) [PROTAC-1, 2-(4-(4-chlorophenyl)-2,3,9-trimethyl-6H-thieno[3,2-f] [1,2,4]triazolo[4,3-a][1,4]diazepin-6-yl)-N-(3-(3-((3-(2,4-dioxo-3,4-dihydropyrimidin-1(2H)-yl)quinolin-6-yl)oxy)propoxy)propyl)acetamide] |  |  | ≥ 0.1 µM |  | 
CN(C(=O)c1ccc(N2CCN(CCCCCOc3ccc([C@@H]4c5ccc(O)cc5CC[C@@H]4c4ccccc4)cc3)CC2)cc1)C1CCC(=O)NC1=O (mixture of isomers) [PROTAC-90, rac-N-(2,6-dioxopiperidin-3-yl)-4-(4-(5-(4-((1R,2S)-6-hydroxy-2-phenyl-1,2,3,4-tetrahydronaphthalen-1-yl)phenoxy)pentyl)piperazin-1-yl)-N-methylbenzamide] |  | 0.001 to 0.01 µM |  | > 75% | 
O=C1CCC(N2CC(c3ccc(N4CCN(CC5CCN(c6ccc([C@@H]7c8ccc(O)cc8CC[C@@H]7c7ccccc7)cc6)CC5)CC4)cc3)=CC2=O)C(=O)N1 (stereo partly drawn) [PROTAC-89, 3-[3-[4-[4-[[1-[4-[(1R,2S)-6-hydroxy-2-phenyl-tetralin-1-yl]phenyl]-4-piperidyl]methyl]piperazin-1-yl]phenyl]-5-oxo-2H-pyrrol-1-yl]piperidine-2,6-dione] |  | 0.001 to 0.01 µM |  | > 75% | 
O=C1CCC(n2cnc(N3CCN(CCCCCOc4ccc([C@@H]5c6ccc(O)cc6CC[C@@H]5c5ccccc5)cc4)CC3)cc2=O)C(=O)N1 (mixture of isomers) [PROTAC-101, rac-3-(4-(4-(5-(4-((1R,2S)-6-hydroxy-2-phenyl-1,2,3,4-tetrahydronaphthalen-1-yl)phenoxy)pentyl)piperazin-1-yl)-6-oxopyrimidin-1(6H)-yl)piperidine-2,6-dione] |  | 0.001 to 0.01 µM |  | 50 to 75% | 
Cc1nc2c(NCCN3CCN(CCOc4ccc(Oc5c(-c6ccc(Br)cc6)sc6cc(O)ccc56)cc4)CC3)cccc2c(=O)n1C1CCC(=O)NC1=O (centres unmarked) [PROTAC-107] |  | 0.01 to 0.1 µM |  |  | ≤ 50%

The remaining lines, values ahead:

Dmax [1] | IC50 (estrogen receptor) | IC50 (c-Myc) | Dmax ([2]; 5 day incubation) | Dmax ([2]; 3 day incubation) | SMILES
≤ 50% | 0.001 to 0.01 µM |  |  |  | O=C1CCC(N2CC(Oc3cccc(C4CCN(CCCOc5ccc([C@H]6c7ccc(O)cc7CC[C@H]6c6ccccc6)cc5)CC4)c3)=CC2=O)C(=O)N1 (mixture of isomers) [PROTAC-105, rac-3-(4-(3-(1-(3-(4-((1R,2S)-6-hydroxy-2-phenyl-1,2,3,4-tetrahydronaphthalen-1-yl)phenoxy)propyl)piperidin-4-yl)phenoxy)-2-oxo-2,5-dihydro-1H-pyrrol-1-yl)piperidine-2,6-dione]
≤ 50% | 0.001 to 0.01 µM |  |  |  | O=C1CCC(N2CC(Oc3cccc(C4CCN(CCCCOc5ccc([C@@H]6c7ccc(O)cc7CC[C@@H]6c6ccccc6)cc5)CC4)c3)=CC2=O)C(=O)N1 (mixture of isomers) [PROTAC-104, rac-3-(4-(3-(1-(4-(4-((1R,2S)-6-hydroxy-2-phenyl-1,2,3,4-tetrahydronaphthalen-1-yl)phenoxy)butyl)piperidin-4-yl)phenoxy)-2-oxo-2,5-dihydro-1H-pyrrol-1-yl)piperidine-2,6-dione]
 | < 0.001 µM |  |  | ≤ 50% | O=C1CCC(n2ncc(Oc3ccc(N4CCN(CCOc5ccc([C@@H]6c7ccc(O)cc7CC[C@@H]6c6ccc(F)cc6)cc5)CC4)nc3)cc2=O)C(=O)N1 (mixture of isomers) [PROTAC-96, rac-3-(4-((6-(4-(2-(4-((1R,2S)-2-(4-fluoro-phenyl)-6-hydroxy-1,2,3,4-tetrahydro-naphthalen-1-yl)phenoxy)ethyl)piperazin-1-yl)pyridin-3-yl)oxy)-6-oxopyridazin-1(6H)-yl)piperidine-2,6-dione]
≤ 50% | < 0.001 µM |  |  |  | O=C1CCC(N2CC(Oc3cccc(C4CCN(CCCOc5ccc([C@@H]6c7ccc(O)cc7CC[C@@H]6c6ccccc6)cc5)CC4)c3)=CC2=O)C(=O)N1 (stereo partly drawn) [PROTAC-106, 3-(4-(3-(1-(3-(4-((1R,2 S)-6-hydroxy-2-phenyl-1,2,3,4-tetrahydronaphthalen-1-yl)phenoxy)propyl)piperidin-4-yl)phenoxy)-2-oxo-2,5-dihydro-1H-pyrrol-1-yl)piperidine-2,6-dione]
